pIC50: −log10 of the molar value. In brackets after ≈: the same amount, converted by molar mass.
Assays:
[1] = Solubility was measured in 50 mM phosphate buffer at pH 7.4; format: physicochemical
Mus musculus = organism: Mus musculus; test: Anticonvulsant activity in mice was determined from maximal electroshock assay; format: functional
[2] = In vitro binding affinity against glycine receptor binding site using [3H]- Glycine as radioligand on rat cortical synaptosomal membranes
[3] = target: Glutamate receptor ionotropic, AMPA (Rattus norvegicus, UniProt P19490+P19491+P19492+P19493); test: In vitro binding affinity against Ionotropic glutamate receptor AMPA binding site using [3H]- AMPA as radioligand on rat cortical synaptosomal membranes

Compound | solubility [1] | ED50 (Mus musculus) | pIC50 [2] | pIC50 [3]
CN1CCc2c([N+](=O)[O-])cc3nc(O)c(O)nc3c2C1 | 8.6 µg/mL (≈ 31.1 µM) | 0.44 mg/kg | 6.43 | –
CCc1c(Br)cc2nc(O)c(O)nc2c1CN(C)CC(=O)O | 140 µg/mL (≈ 378 µM) | – | – | 5.63
CCc1ccc2nc(O)c(O)nc2c1CN(C)CC(=O)O | – | – | < 5.00 | < 5.00
CCc1c([N+](=O)[O-])cc2nc(O)c(O)nc2c1CN(C)CC(=O)O | 420 µg/mL (≈ 1250 µM) | – | 6.33 | 6.85
C=Cc1c(Br)cc2nc(O)c(O)nc2c1CN(C)CC(=O)O | 170 µg/mL (≈ 462 µM) | – | – | 5.93
CCOC(=O)CN(C)Cc1c(CC)c([N+](=O)[O-])cc2nc(O)c(O)nc12 | 150 µg/mL (≈ 412 µM) | – | < 5.00 | 5.80
